Reference: publication PMC12420824, “Discovery of a selective alpha-kinase 1 inhibitor for the rare genetic disease ROSAH syndrome” (Nature Communications, 2025)

Each compound was assayed against T1, full-length ALPK1 (Homo sapiens, UniProt Q96QP1) (assay: Thermal shift assay (TSA)). Settings: pilot TSA screen / assay validation.
T1 construct: recombinant full-length ALPK1 kinase purified from Sf9 cells; 3xFlag (C); made in house; host or cells: Sf9 insect cells (baculovirus, pFAST-BAC)
Format: binding
Protocol: A small molecule library containing ~160,000 compounds (HTS Diversity V2) was prepared by WuXi AppTec (Shanghai, China) in 384 well thin-wall qPCR plates, with 20 nL of 10 mM compound preparations in each well. On each screening plate, 2 columns of wells were loaded with 20 nL of pure DMSO to leave spaces for negative controls (no compounds) and the positive control (AS-252424). […] The mixture was spun down at 1000 rpm for 1 min, then immediately applied to a protein melting reaction on a Roche LightCycler® 480 II Real-time PCR system, heating the mixture from 30 °C to 50 °C at the ramp rate of 0.02 °C/s while continuously acquiring the fluorescence signal. The melting temperature (Tm) of the ALPK1 protein with or without each compound was calculated using the Protein Thermal Shift™ Analysis Desktop Software v1.2 (Thermo Fisher Scientific). For positive control wells, 40 μM AS-252424 in 5 μl compound solvent was added manually and used as a positive control in the thermal shift screening.

T1 sequence (Q96QP1 whole entry): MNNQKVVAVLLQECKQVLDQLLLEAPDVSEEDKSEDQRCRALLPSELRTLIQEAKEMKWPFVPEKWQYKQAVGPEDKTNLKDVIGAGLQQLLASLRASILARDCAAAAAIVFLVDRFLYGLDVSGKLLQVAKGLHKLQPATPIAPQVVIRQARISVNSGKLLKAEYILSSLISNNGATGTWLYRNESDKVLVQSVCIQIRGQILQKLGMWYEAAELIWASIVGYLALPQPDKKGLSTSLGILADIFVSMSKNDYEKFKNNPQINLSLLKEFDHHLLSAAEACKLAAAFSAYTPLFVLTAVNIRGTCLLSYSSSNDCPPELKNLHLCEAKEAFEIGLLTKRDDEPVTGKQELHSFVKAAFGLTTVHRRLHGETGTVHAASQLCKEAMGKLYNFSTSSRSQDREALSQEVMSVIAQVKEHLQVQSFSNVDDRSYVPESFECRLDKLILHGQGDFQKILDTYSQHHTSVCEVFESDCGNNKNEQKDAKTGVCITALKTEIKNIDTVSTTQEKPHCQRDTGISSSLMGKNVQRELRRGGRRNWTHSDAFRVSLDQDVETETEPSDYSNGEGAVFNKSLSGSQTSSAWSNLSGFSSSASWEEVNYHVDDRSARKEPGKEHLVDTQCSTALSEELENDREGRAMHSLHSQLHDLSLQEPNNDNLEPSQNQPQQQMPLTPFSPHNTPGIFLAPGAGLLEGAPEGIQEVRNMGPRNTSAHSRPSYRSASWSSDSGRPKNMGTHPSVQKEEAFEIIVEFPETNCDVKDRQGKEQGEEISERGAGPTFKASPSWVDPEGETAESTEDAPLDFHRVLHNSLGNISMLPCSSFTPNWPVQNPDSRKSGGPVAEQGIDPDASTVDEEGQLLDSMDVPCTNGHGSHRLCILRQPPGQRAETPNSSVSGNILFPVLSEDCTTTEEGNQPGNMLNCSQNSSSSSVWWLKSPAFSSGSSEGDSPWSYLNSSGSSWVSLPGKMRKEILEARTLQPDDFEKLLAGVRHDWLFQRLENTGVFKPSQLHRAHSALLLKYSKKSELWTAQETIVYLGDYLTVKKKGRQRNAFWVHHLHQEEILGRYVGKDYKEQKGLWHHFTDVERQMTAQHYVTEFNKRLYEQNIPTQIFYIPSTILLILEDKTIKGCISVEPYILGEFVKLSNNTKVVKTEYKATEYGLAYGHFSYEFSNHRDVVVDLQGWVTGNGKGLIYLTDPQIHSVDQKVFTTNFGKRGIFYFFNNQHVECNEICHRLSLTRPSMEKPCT

Row | increase in melting temperature (Tm) [°C] | Structure (SMILES)
1 | 1.4 | Nc1ncnc2c1ncn2[C@@H]1O[C@H](COP(=O)(O)OP(=O)(O)O)[C@@H](O)[C@H]1O [ADP]

Each compound was assayed against ALPK1 (Homo sapiens, UniProt Q96QP1) (assay: TR-FRET (HTRF) kinase assay). Settings: 6.25 µM ATP, 20 nM ADP-D-heptose.
ALPK1, sequence (Q96QP1 whole entry): as above

Row | HTRF Assay (IC50) | Structure (SMILES)
2 | No activity | COc1ccccc1CNC(=O)Nc1nc(C(C)(C)c2cccc(Br)c2)cs1 [Compound 6]
3 | No activity | COc1ccccc1CNC(=O)Nc1nc(C2(c3ccccc3)CC2)cs1 [Compound 7]
4 | No activity | COc1ccccc1CNC(=O)Nc1nc(C2(c3ccccc3)CCC2)cs1 [Compound 8]

Same assay, conditions: read-out: HTRF Assay (IC50); 6.25 µM ATP, 20 nM ADP-D-heptose

Row | Structure (SMILES) | IC50 [nM]
5 | O=C(NCc1ccccc1)Nc1nc(C2(c3ccccc3)CCCC2)cs1 [Compound 1] | 5000
6 | CC(C)(c1ccccc1)c1csc(NC(=O)NCc2ccccc2)n1 [Compound 2] | 2500
7 | CC(C)(c1ccccc1)c1csc(NC(=O)NCc2ccccc2)n1 [Compound 3] | 2100
8 | COc1ccccc1CNC(=O)Nc1nc(C(C)c2ccccc2)cs1 (centres unmarked) [Compound 9] | 3750
9 | COCCNC(=O)Nc1nc(C(C)(C)c2ccc(Br)cc2)cs1 [Compound 28] | 1130
10 | C#CC(C)(c1ccc(Br)cc1)c1csc(NC(=O)NCCO)n1 (centres unmarked) [Compound 29] | 71
11 | C#CC(C)(c1ccc(Br)cc1)c1csc(NC(N)=O)n1 (centres unmarked) [Compound 30] | 130
12 | C#CC(C)(c1ccc(OC)cc1)c1csc(NC(N)=O)n1 (centres unmarked) [Compound 31] | 94
13 | C#CC(CC)(c1ccc(Br)cc1)c1csc(NC(=O)NCCO)n1 (centres unmarked) [Compound 32] | 886
14 | COCC(C)(c1ccc(Cl)cc1)c1csc(NC(=O)NCCO)n1 (centres unmarked) [Compound 33] | 558
15 | C#CC(C)(c1ccc(Cl)cc1)c1csc(NC(N)=O)n1 (centres unmarked) [Compound 34] | 48
16 | COc1cccc2sc(NC(=O)c3c(F)cccc3F)nc12 [Compound 35] | 1300
17 | COc1cccc2sc(NC(=O)c3c(F)cc(N4CCN(Cc5ccccc5)C(=O)C4)cc3F)nc12 [Compound 36] | 321
18 | COc1cccc2sc(NC(=O)c3c(F)cc(NCCN(C)C)cc3F)nc12 [Compound 37] | 507
19 | COc1cccc2sc(NC(=O)c3c(F)cc(N4CCC(N)C4)cc3F)nc12 (centres unmarked) [Compound 38] | 125
20 | COc1cccc2sc(NC(=O)c3c(F)cc(N4CCC(O)C4)cc3F)nc12 (centres unmarked) [Compound 39] | 3190
21 | COc1cccc2sc(NC(=O)c3c(F)cc(OCCO)cc3F)nc12 [Compound 40] | 560

Row | Structure (SMILES) | IC50 [nM]
22 | COc1cccc2sc(NC(=O)c3c(F)cc(N4CCC(CO)CC4)cc3F)nc12 [Compound 41] | 2280
23 | COc1cccc2sc(NC(=O)c3c(F)cc(N4CCN(CCO)CC4)cc3F)nc12 [Compound 42] | 5310
24 | COc1cccc2sc(NC(=O)c3c(F)cc(N4CCNCC4)cc3F)nc12 [Compound 43] | 209
25 | COc1cccc2sc(NC(=O)c3c(F)cc(N4CCNC(C)C4)cc3F)nc12 (centres unmarked) [Compound 44] | 349
26 | C#CC(C)(c1ccc(Cl)cc1)c1csc(NC(=O)c2c(F)ccc(OC)c2F)n1 (centres unmarked) [Compound 47] | 1550
27 | C#CC(C)(c1ccc(Cl)cc1)c1csc(NC(=O)c2c(F)cc(N3CCN(C)CC3)cc2F)n1 (centres unmarked) [Compound 51] | 425
28 | C#CC(C)(c1ccc(Cl)cc1)c1csc(NC(=O)c2c(F)cc(NCCO)cc2F)n1 (centres unmarked) [Compound 52] | 405
29 | C#CC(C)(c1ccc(Cl)cc1)c1csc(NC(=O)c2c(F)cc(N3CCC(N)C3)cc2F)n1 (centres unmarked) [Compound 54] | 31
30 | C#CC(C)(c1ccc(Cl)cc1)c1csc(NC(=O)c2c(F)cc(N3CCNC(CO)C3)cc2F)n1 (centres unmarked) [Compound 55] | 317
31 | C#CC(C)(c1ccc(Cl)cc1)c1csc(NC(=O)c2c(F)cc(N3CCNCC3CO)cc2F)n1 (centres unmarked) [Compound 56] | 20
32 | C#CC(C)(c1ccc(Cl)cc1)c1csc(NC(=O)c2c(F)cc(N3CCNCC3CC)cc2F)n1 (centres unmarked) [Compound 58] | 70
33 | CC(c1ccc(Cl)cc1)c1csc(NC(=O)c2c(F)cc(N3CCNCC3)cc2F)n1 (centres unmarked) [Compound 59] | 270
34 | O=C(Nc1nc(Cc2ccccn2)cs1)c1c(F)cc(N2CCNCC2)cc1F [Compound 60] | 1270
35 | O=C(Nc1nc(C2(c3ccc(Br)cc3)CCCC2)cs1)c1c(F)cc(N2CCNCC2)cc1F [Compound 63] | 437
36 | C#CC(C)(c1csc(NC(=O)c2c(F)cc(N3CCNCC3)cc2F)n1)c1ccc(Cl)cc1F (centres unmarked) [Compound 65] | 77
37 | C#CC(C)(c1ccc(Cl)c(F)c1)c1csc(NC(=O)c2c(F)cc(N3CCNCC3)cc2F)n1 (centres unmarked) [Compound 67] | 17

Results, then the compound that gave them:

Row | IC50 [nM] | Structure (SMILES)
38 | 2200 | COc1ccccc1CNC(=O)Nc1nc(C(C)(C)c2ccccc2)cs1 [Compound 4]
39 | 1100 | COc1ccccc1CNC(=O)Nc1nc(C(C)(C)c2ccc(Br)cc2)cs1 [Compound 5]
40 | 1130 | CC(C)(c1ccc(OC(F)(F)F)cc1)c1csc(NC(=O)NCc2ccc(N3CCNCC3)cc2)n1 [Compound 10]
41 | 44 | CC(C)(c1ccc(Cl)cc1)c1csc(NC(=O)NCc2ccc(N3CCNCC3)cc2)n1 [Compound 11]
42 | 155 | CC(C)(c1ccc(C2CC2)cc1)c1csc(NC(=O)NCc2ccc(N3CCNCC3)cc2)n1 [Compound 12]
43 | 236 | CC(C)(c1ccc(C#N)cc1)c1csc(NC(=O)NCc2ccc(N3CCNCC3)cc2)n1 [Compound 13]
44 | 915 | CC(C)(c1ccc(F)cc1)c1csc(NC(=O)NCc2ccc(N3CCNCC3)cc2)n1 [Compound 14]
45 | 284 | CC(C)(c1ccc(I)cc1)c1csc(NC(=O)NCc2ccc(N3CCNCC3)cc2)n1 [Compound 15]
46 | 5620 | O=C(NCc1ccc(N2CCNCC2)cc1)Nc1nc(C(CO)c2ccc(Br)cc2)cs1 (centres unmarked) [Compound 16]
47 | 391 | CC(c1ccc(Br)cc1)c1csc(NC(=O)NCc2ccc(N3CCNCC3)cc2)n1 (centres unmarked) [Compound 17]
48 | 130 | CC(C)(c1ccc(Br)cc1)c1csc(NC(=O)NCc2ccc(N3CCNCC3)cc2)n1 [Compound 18]
49 | 429 | CCC(C)(c1ccc(Br)cc1)c1csc(NC(=O)NCc2ccc(N3CCNCC3)cc2)n1 (centres unmarked) [Compound 19]
50 | 122 | COc1ccc(C(C)(C)c2csc(NC(=O)NCc3ccc(N4CCNCC4)cc3)n2)cc1 [Compound 20]
51 | 84 | COc1ccc(C(C)(C)c2csc(NC(=O)NCc3ccc(N4CCNCC4)c(F)c3)n2)cc1 [Compound 21]
52 | 732 | CC(C)(c1ccc(O)cc1)c1csc(NC(=O)NCc2ccc(N3CCNCC3)cc2)n1 [Compound 22]
53 | 138 | CC(C)(c1ccc(Br)cc1)c1csc(NC(=O)NCc2ccc(N3CCNCC3)c(F)c2)n1 [Compound 23]
54 | 233 | CC(C)(c1ccc(Br)cc1)c1csc(NC(=O)NCc2ccc(N3CCNCC3)c(Cl)c2)n1 [Compound 24]
55 | 462 | Cc1cc(CNC(=O)Nc2nc(C(C)(C)c3ccc(Br)cc3)cs2)ccc1N1CCNCC1 [Compound 25]

Row | IC50 [nM] | Structure (SMILES)
56 | 161 | COc1cc(CNC(=O)Nc2nc(C(C)(C)c3ccc(Br)cc3)cs2)ccc1N1CCNCC1 [Compound 26]
57 | 38 | C#CC(C)(c1ccc(Cl)cc1)c1csc(NC(=O)c2ccc(N3CCNCC3)cc2)n1 (centres unmarked) [Compound 45]
58 | 167 | C#CC(C)(c1ccc(Cl)cc1)c1csc(NC(=O)c2ccc(N3CCNCC3)nc2)n1 (centres unmarked) [Compound 46]
59 | 151 | C#CC(C)(c1ccc(Cl)cc1)c1csc(NC(=O)c2ccc(N3CCNCC3)cc2F)n1 (centres unmarked) [Compound 48]
60 | 312 | C#CC(C)(c1ccc(Cl)cc1)c1csc(NC(=O)c2c(Cl)cc(N3CCNCC3)cc2Cl)n1 (centres unmarked) [Compound 53]
61 | 23 | CC(C)(c1ccc(F)cc1)c1csc(NC(=O)c2c(F)cc(N3CCNCC3)cc2F)n1 [Compound 61]
62 | 182 | COCC(C)(c1ccccc1)c1csc(NC(=O)c2c(F)cc(N3CCNCC3)cc2F)n1 (centres unmarked) [Compound 62]
63 | 14 | C#CC(C)(c1ccc(F)cc1)c1csc(NC(=O)c2c(F)cc(N3CCNCC3)cc2F)n1 (centres unmarked) [Compound 64]
64 | 83 | C#CC(CC)(c1ccc(Cl)cc1)c1csc(NC(=O)c2c(F)cc(N3CCNCC3)cc2F)n1 (centres unmarked) [Compound 66]
65 | 13 | C#CC(C)(c1ccc(C)cc1)c1csc(NC(=O)c2c(F)cc(N3CCNCC3)cc2F)n1 (centres unmarked) [Compound 68]
66 | 45 | CC#CC(C)(c1ccc(Cl)cc1)c1csc(NC(=O)c2c(F)cc(N3CCNCC3)cc2F)n1 (centres unmarked) [Compound 69]
67 | 577 | CC(c1ccccc1)(c1ccc(Cl)cc1)c1csc(NC(=O)c2c(F)cc(N3CCNCC3)cc2F)n1 (centres unmarked) [Compound 70]
68 | 25 | CC(c1ccc(Cl)cc1)(c1csc(NC(=O)c2c(F)cc(N3CCNCC3)cc2F)n1)C1CC1 (centres unmarked) [Compound 71]
69 | 18 | C#CC(C)(c1ccc(OC)cc1)c1csc(NC(=O)c2c(F)cc(N3CCNCC3)cc2F)n1 (centres unmarked) [Compound 72]
70 | 73 | C#CC(C)(c1ccc(OC(F)F)cc1)c1csc(NC(=O)c2c(F)cc(N3CCNCC3)cc2F)n1 (centres unmarked) [Compound 73]
71 | 42 | COCC(C)(c1ccc(Cl)cc1)c1csc(NC(=O)c2c(F)cc(N3CCNCC3)cc2F)n1 (centres unmarked) [Compound 74]
72 | 642 | CCOCC(C)(c1ccccc1)c1csc(NC(=O)c2c(F)cc(N3CCNCC3)cc2F)n1 (centres unmarked) [Compound 75]

Same assay, conditions: read-out: IC50 in TR-FRET assay; 6.25 µM ATP, 20 nM ADP-D-heptose

Row | IC50 [nM] | Structure (SMILES)
73 | 4000 | Nc1nc(C2(c3ccccc3)CCCC2)cs1 [Hit 1]
74 | 11000 | COc1ccc(OC)c2sc(NC(=O)c3c(F)cccc3F)nc12 [Hit 2]
